Source: US20220304978A1, “INHIBITING MESANGIAL CELL ACTIVATION” (Chinook Therapeutics, Inc., priority 2019, published 2022)
“Also recorded” adds a separate entry of the source.

What was measured:
[1] = tested on: kidney tissue of g-ddY mice; assay: Gene Set Enrichment Analysis (GSEA) hallmark gene sets, g-ddY kidney RNA-seq; format: in vivo, mouse; details: 30 mg/kg/day
g-ddY mice = assay: UACR (albuminuria) in g-ddY mouse model of IgA nephropathy; format: in vivo
From the text: The grouped ddY (g-ddY) mouse is a spontaneous model of early-onset IgA nephropathy characterized by IgA immune complex deposition in the mesangium of the kidney, leading to significant proteinuria, glomerular hypercellularity, mesangioproliferative glomerular lesions, glomerular sclerosis and reduced kidney function, all hallmarks of human IgA nephropathy (J Am Soc Nephrol 23: 1364-1374, 2012). Consistent with human IgA nephropathy, the mesangial IgA deposits in the g-ddY mouse are also accompanied by deposition of IgG and complement C3.

[2] = tested on: primary human renal mesangial cells (HRMCs); assay: Proliferation (BrdU) of HRMCs stimulated with IgA-containing immune complexes from IgAN patients; format: cell-based; details: immune complexes purified from three patients with IgA nephropathy
From the text: Primary human mesangial cells in a culture were stimulated with pathogenic galactose deficient (Gd)-IgA containing immune complexes isolated from human IgA nephropathy patients. […] Specifically, pathogenic IgA-containing immune complexes were isolated from serum from either IgA nephropathy patients or age, gender and ethnicity-matched healthy individuals. Frozen serum was purchased from BioIVT and IgA-containing immune complexes were purified using jacalin affinity chromatography. […] Purified IgA-containing immune complexes were concentrated using a 100K Amicon filtration unit and the amount of total IgA and galactose-deficient IgA (Gd-IgA) in the immune complexes was measured by ELISA (ThermoFisher and IBL America, respectively). […] See, e.g., Novak et. al., Kidney International, 67, pp. 504-516; 2005; Novak et. al., Nephrol. Dial. Transplant, 26, pp. 3451-3457; 2011; Liang et. al., Cell Physiol. Biochem., 36, pp. 1793-1808; 2015; Nguyen et. al., Clin. Kidney 1, 12 (2), pp, 232-238; 2019.

[3] = 20 and 30 mg/kg/day, approximately 5 days

`CCCCN(CCCC)C(=O)CN1C[C@H](c2ccc3c(c2)OCO3)[C@@H](C(=O)O)[C@@H]1c1ccc(OC)cc1` [atrasentan, (2R,3R,4S)-4-(1,3-benzodioxol-5-yl)-1-[2-(dibutylamino)-2-oxoethyl]-2-(4-methoxyphenyl)pyrrolidine-3-carboxylic acid] was tested. Which “cell proliferation associated signaling (mitotic spindle and G2M checkpoint)” value [1] did it give?
The value was “reduced”.

What about the inflammatory response signaling [1] of the same compound?
Its inflammatory response signaling is “reduced”.

What about the “effect to reduce UACR from baseline compared to the control group” value (“effect to reduce UACR from baseline” for short) (g-ddY mice; 10 mg/kg/day) of the same compound?
Its value is “not significant”.

What about the “albuminuria compared to baseline” value (g-ddY mice; 10 mg/kg/day, approximately 5 days) of the same compound?
The value was “not significantly changed from baseline”.

And the “effect to reduce UACR from baseline” value (g-ddY mice; 20 mg/kg/day, P=0.0498, un-paired t-test)?
Its value is “statistically significant”.

What about the “albuminuria compared to baseline” value (g-ddY mice; 20 mg/kg/day, approximately 5 days, P=0.0593) of the same compound?
The value was “reduced from baseline to a similar extent”.

What about the “effect to reduce UACR from baseline” value (g-ddY mice; 30 mg/kg/day, P=0.029) of the same compound?
Its value is “statistically significant”.

What about the “albuminuria compared to baseline” value (g-ddY mice; 30 mg/kg/day, approximately 5 days, paired t-test) of the same compound?
The value was “significantly (P=0.0002, paired two-sided t-test) reduced”.

What about the “albuminuria compared to control g-ddY mice” value (g-ddY mice; [3]) of the same compound?
Its value is “significantly reduced”.

And the “albuminuria lowering, reduction from baseline” value (g-ddY mice; [3])?
Its value is > 60%.

And the “hyperproliferation of HRMCs induced by IgA containing immune complexes” value [2]?
Its value is “reduces the proliferation; also recorded: significantly attenuated”.
